Measured values published in patent US12240811B2, “N-heterocyclic five-membered ring-containing capsid protein assembly inhibitor, pharmaceutical composition and uses thereof” (CHIA TAI TIANQING PHARMACEUTICAL GROUP CO., LTD., priority 2019, dated 2025).
Like-named read-outs stand apart in the source and are kept apart here.

How the values were obtained:
[1] = In vitro cytotoxicity (CCK-8); assay type: cell-based; details: human, HepG2.2.15 cells
Protocol: A bottle of HepG2.2.15 cells (Wuhan Institute of Virology) in good exponential growth state was taken, washed once by adding 5 mL PBS, and then thereto was added 2 mL trypsin. The sample was digested in a cell culture incubator, and taken out from time to time and observed under a microscope. When the cells just fell off, 1 mL trypsin was discarded. The residual liquid was placed in a cell culture incubator at 37° C. and digested for 8-15 min. The cells were taken out and observed under a microscope (whether the cells were individually round and there was no adhesion between the cells). 5 mL MEM medium was added for cell resuspension. The cells were then subjected to cell counting with a cell counter, diluted with a complete medium, and adjusted to a cell density of 2*10^5 cells/mL. Then the cells were seeded at 100 μL/well in a 96-well plate with a multi-channel pipette (the 96-well plate was coated with 50 μg/mL Collagen I solution in advance), and cultured in a constant temperature CO2 incubator for 24 h. The cells were treated by drug administration, and fresh medium containing the compound was used to replace the spent medium every 3 days. […] After 1 to 2 hours, the absorbance was detected with microplate reader at 450 nm, and the inhibition rate and the CC50 were calculated.

[2] = Plasma protein binding assay, human plasma; assay type: in vitro ADME
Protocol: (§1) Formulation of plasma sample: 495 μL of blank plasmas of the corresponding species (mouse, rat, dog, monkey, and human) were drawn respectively, and thereto was added 5 μL of the corresponding test compound solution or positive control to give plasma sample solutions having a plasma drug concentration of the compound of 1 μM, and 10 μM, respectively (formulated with acetonitrile).
(§2) The pre-treated dialysis membrane was placed in a high-throughput equilibrium dialysis device, and 100 μL of the plasma sample solution and PBS buffer solution were drawn and added respectively to both sides of the dialysis membrane (sample side and buffer side) (n=3). After the equilibration device was sealed with a film, it was incubated at 37° C. overnight (100 rpm). After dialysis equilibrium was reached, 50 μL samples were drawn from the sample side and the buffer side, respectively, and the reaction was terminated by adding ice acetonitrile containing an internal standard.
(§3) Sample pre-treatment: To 50 μL of the plasma-side sample was added 450 μL of ice acetonitrile containing an internal standard, and then precipitated. After vortexing for 5 minutes, the sample was centrifugated (12000 rpm, 4° C.) for 10 minutes. 75 μL of the supernatant was pipetted, and 75 μL of ultrapure water was added thereto for dilution and mixed uniformly. 1 μL of the resulting solution was injected for analysis. […]

[3] = Plasma protein binding assay, monkey plasma; assay type: in vitro ADME
Protocol: as §1, §2, §3

[4] = Stability of liver microsomes in vitro, rat; assay type: in vitro ADME
Protocol: (§4) 300 μL of a final incubation system contains 30 μL of liver microsomes (protein concentration: 0.15 mg/mL, Corning), 30 μL NADPH+MgCl2, 3 μL substrate (formulated with acetonitrile), and 237 μL PBS buffer. Duplicate incubation systems of 0.3 mL each were formulated for each species. A total volume of 270 μL of a uniformly mixed solution of the substrate and the enzyme was formulated in each tube, the solution and NADPH were pre-incubated at 37° C. for 5 minutes, respectively. Then 30 μL of the mixed solution of NADPH+MgCl2 was added for reaction. 50 μL of the reaction solution was taken out at 0, 10, 30, and 60 mins, and the reaction was terminated with 300 μL of ice acetonitrile containing an internal standard.
(§5) Sample pre-treatment: To 50 μL of the incubated sample was added 300 μL of ice acetonitrile containing diazepam as an internal standard and then precipitated. After vortexing for 5 minutes, the sample was centrifugated (12000 rpm, 4° C.) for 10 minutes. 75 μL of the supernatant was pipetted into a 96-well plate, and then diluted with 75 μL ultrapure water and mixed uniformly. 0.5 μL of the resulting solution was injected and analyzed by LC-MS/MS.

[5] = Stability of liver microsomes in vitro, mouse; assay type: in vitro ADME
Protocol: as §4, §5

[6] = tested on: HBV DNA in serum; test: Antiviral effect evaluation in AAV mouse model (rAAV8-1.3HBV); assay type: in vivo, C57BL/6 mice; details: for Reduction levels (log10) of HBV DNA in serum, Day 28: Day 28 (1 week after administration suspended)
Protocol: 6-8 week old male C57BL/6 mice (Shanghai Lingchang Biotechnology Co., Ltd.) were injected with rAAV8-1.3HBV virus (Beijing FivePlus Gene Technology Ltd., adr subtype) at tail vein at a dose of 1×10^11 vg. Blood was collected from the orbits of the mice on week 2 and 4 after the virus injection. The serum was separated, and the expression levels of HBeAg and HBsAg in the serum and the HBV DNA copy number were detected to evaluate whether the model was successfully established. According to the results of quantitative detection of serological HBeAg, HBsAg and HBV DNA, the mice having HBV DNA expression level greater than 1×10^4 IU/mL, HBeAg expression level greater than 1×10^3 NCU/mL and HBsAg expression level greater than 1×10^3 ng/mL were selected. The mice were grouped into a blank control group, a vehicle control group, and a test substance group. The mice in each group were continuously administered intragastrically once daily for 3 weeks and then the administration was suspended for 1 week. During the experiment, blood was collected from the orbits every other week, serum was separated, and the DNA content was detected by fluorescent quantitative PCR method.

[7] = In vivo pharmacokinetics (PK) study in rats; set-up: species or system SD rats; details: for half-life: SD, in vivo; for AUC(0-t): read-out: AUC(0-48 h)
[8] = rat, plasma, SD rats, IV 5 mg/kg
[9] = rat, plasma, SD rats, PO 10 mg/kg

Cc1[nH]c(C(=O)C(=O)N[C@@H](C)C(F)(F)F)c(C)c1C(=O)Nc1ccc(F)c(C#N)c1 [Example 1, (S)—N-(3-cyano-4-fluorophenyl)-2,4-dimethyl-5-(2-oxo-2-((1,1,1-trifluoroprop-2-yl)amino)acetyl)-1H-pyrrole-3-carboxamide]
CC50 at 6 days [1]: > 100 µM
Binding rate (%) Human ([2]; 1 μM): 97.3%
Binding rate (%) Human ([2]; 10 μM): 97.3%
Binding rate (%) Monkey ([3]; 1 μM): 90.2%
Binding rate (%) Monkey ([3]; 10 μM): 90.5%
Remaining (%) of rat liver microsomes at 60 min [4]: 99%
Remaining (%) of mouse liver microsomes at 60 min [5]: 96%
Reduction levels (log10) of HBV DNA in serum, Day 7 ([6]; 1 mpk intragastric once daily): 2.49 log10
Reduction levels (log10) of HBV DNA in serum, Day 14 ([6]; 1 mpk intragastric once daily): 3.41 log10
Reduction levels (log10) of HBV DNA in serum, Day 21 ([6]; 1 mpk intragastric once daily): 3.65 log10
Reduction levels (log10) of HBV DNA in serum, Day 28 ([6]; 1 mpk): 3.25 log10
Reduction levels (log10) of HBV DNA in serum, Day 7 ([6]; 10 mpk intragastric once daily): 2.67 log10
Reduction levels (log10) of HBV DNA in serum, Day 14 ([6]; 10 mpk intragastric once daily): 3.80 log10
Reduction levels (log10) of HBV DNA in serum, Day 21 ([6]; 10 mpk intragastric once daily): 4.30 log10
Reduction levels (log10) of HBV DNA in serum, Day 28 ([6]; 10 mpk): 3.50 log10
F ([7]; SD rats, PO 10 mg/kg vs IV 5 mg/kg): 100%
half-life ([7]; rat, iv, 5 mg/kg): 52.8 h
half-life ([7]; rat, po, 10 mg/kg): 45.6 h
AUC(0-inf) [7, 8]: 148 µg·h/mL
Cmax [7, 8]: 3510 ng/mL
clearance [7, 8]: 0.5 mL/min/kg
AUC(0-t) [7, 8]: 127 µg·h/mL
Vd ([7]; rat, plasma, SD rats, IV 5 mg/kg, read-out: Vz): 2.58 L/kg
AUC(0-inf) [7, 9]: 284 µg·h/mL
Cmax [7, 9]: 4110 ng/mL
AUC(0-t) [7, 9]: 254 µg·h/mL
